According to patent US20220105058A1, “USE OF 3-O-SULFAMATE-16,16-DIMETHYL-D-HOMOEQUILENIN TO TREAT ONCOLOGICAL DISEASES” (priority 2018, published 2022):
Several values for one entry are separate records, joined by “and”; a condition that tells them apart may be missing. Equal entries are not always repeated. Entries after “also recorded” stand apart in the source; their conditions may differ. Where two headings read alike, the source gives them in different places. Marks after values point to notes of the source that are not given here.

What was measured:
[1] = test system: MCF-7 human cells culture (breast adenocarcinoma); assay: proliferation of passaged MCF-7 cell culture; format: cell-based
Method: The study analysis was carried out on an passaged MCF-7 human cells culture culture (breast adenocarcinoma). Normal human dermal fibroblasts (HDF) of early passages were used as a negative control. The cells were cultivated in Carrel vials in DMEM/F12 medium (Biolot) with 1.0% of antibiotic-free fetal bovine embryonic serum (Biolot) added in the 5% CO2 atmosphere, at 37° C.
The cells were seeded on Carrel vials at 50×10^4 cells per flask. To study the proliferative activity of the cells under conditions of sulfatase inhibition, 24 hours after seeding the culture medium […], and then these tumor cell lines were incubated for various periods of time (24 to 72 hrs). The inhibitor was dissolved in DMSO. […] To exclude the cytotoxic effect of DMSO, a control sample comprising DMSO without sulfatase inhibitor was prepared. To exclude nonspecific detrimental effects of the compounds, normal human skin fibroblasts were used. Then the cells were detached with the versene-trypsin solution (Biolot), plated onto Carrel vials containing a fresh complete culture medium. The cells were counted when untreated control cells reached the maximum cell density per unit of surface area of a culture flask (monolayer), and their number was set as 100%. The proliferative activity of all of the studied cell cultures exposed to sulfatase inhibitors was determined in triplicate.

[2] = test system: uterine body without horns; assay: uterine body weight (hormonal effect) on Day 28; format: in vivo, FVB mice transgenic for HER-2/neu; conditions: Tamoxifen 4 mg/kg, Day 28
Method: To estimate the hormonal effect of the medicament, the weight of uterine body without horns was measured on Day 28 of the observation period (Table 9).

[3] = test system: subcutaneous xenografts of human TNBC-Kad breast cancer
Method: A comparative study of the medicaments in vivo was performed in female Balb/c nude mice with subcutaneously (s.c.) transplanted tumor cells. The experiment lasted for 29 days after the medicament administration for the first time (the administration of the medicaments was started on Day 5 after the tumor strain transplantation).
The medicament and the reference drug were administered intragastrically multiple times at doses of 30 mg/kg and 10 mg/kg daily for 21 days.
The placebo group was given 1% starch solution intragastrically in equivalent volumes and in the same regime. Tumor nodes were measured 2 times per week. […] Once the treatment was completed, the last tumor measurement was carried out, and animals were weighed and euthanized.
The animals were weighed on the first day of the experiment, and then 2 times per week throughout the experiment according to the research protocol.
A tumor node was measured after tumor transplantation 2 times per week throughout the experiment. The tumor node volume was determined by the formula:
V=π/6*L*W*H, where L, W, H are the linear size dimensions of the tumor.
Determination of Antitumor Activity
Tumor growth inhibition index (TGI) was used as a criterion for the study of the medicament efficacy and calculated by the formula as follows:
TGI (%)=|Vctrl−Vexp|/Vctrl*100
where Vctrl and Vexp are the average tumor volume (mm^3) in the control and in the experimental groups, respectively.
After the course of the treatment, the animals were euthanized by the cervical dislocation of cervical vertebrae.
The statistical data processing was conducted using SPSS 21 package (license No. 20130626-3). Descriptive statistics in the study includes the following: arithmetic average, standard deviation (SD), standard mean error (SE), median, quartiles, interquartile range. To compare quantitative characteristics in the groups, the Mann-Whitney-Wilcoxon test was used without corrections for multiple comparisons. The results were considered statistically significant at p<0.05.

[4] = test system: Breast tumors (BT) in female FBV/N mice transgenic for HER-2/neu; assay: antitumor activity in mice with HER-2/neu breast tumors; format: in vivo, FVB mice transgenic for HER-2/neu; conditions: Tamoxifen 4 mg/kg
Description: The age of animals at the beginning of the study was 21-41 weeks and weight was 25-30 g.
The control groups were given the olive oil (placebo).
TGI=(Vctrl−Vexp)/Vctrl×100(%),

CC/C(=C(\c1ccccc1)c1ccc(OCCN(C)C)cc1)c1ccccc1 [Tamoxifen]
proliferation of tumor MCF-7 cells [1]: inhibited to the same extent | Uterine body weight ([2]; All mice): 28 ± 1 mg | Uterine body weight ([2]; estrus (E-9)): 28 ± 1 mg | tumor growth inhibition over the entire observation period ([3]; Tamoxifen 10 mg/kg): no tumor growth inhibition was detected; also recorded: is not effective | average tumor volume (M ± m) ([3]; Tamoxifen 10 mg/kg, Day 0): 2.3±0.8 mm^3 and 2.33 ± 0.76 mm^3 | average tumor volume (M ± m) ([3]; Tamoxifen 10 mg/kg, Day 3): 25.61 ± 5.56 mm^3 | TNBC_Kad growth inhibition, TGI ([3]; Tamoxifen 10 mg/kg, Day 7): 0.5% | average tumor volume (M ± m) ([3]; Tamoxifen 10 mg/kg, Day 7): 79.17 ± 18.80 mm^3 | TNBC_Kad growth inhibition, TGI ([3]; Tamoxifen 10 mg/kg, Day 10): −20.7% | average tumor volume (M ± m) ([3]; Tamoxifen 10 mg/kg, Day 10): 122.09 ± 27.84 mm^3 | TNBC_Kad growth inhibition, TGI ([3]; Tamoxifen 10 mg/kg, Day 14): −18.4% | average tumor volume (M ± m) ([3]; Tamoxifen 10 mg/kg, Day 14): 193.24 ± 54.10 mm^3 | TNBC_Kad growth inhibition, TGI ([3]; Tamoxifen 10 mg/kg, Day 17): −22.6% | average tumor volume (M ± m) ([3]; Tamoxifen 10 mg/kg, Day 17): 237.32 ± 77.07 mm^3 | TNBC_Kad growth inhibition, TGI ([3]; Tamoxifen 10 mg/kg, Day 21): −7.9% | average tumor volume (M ± m) ([3]; Tamoxifen 10 mg/kg, Day 21): 322.76 ± 88.25 mm^3 | average tumor volume (M ± m) ([3]; Tamoxifen 30 mg/kg, Day 0): 4.1±1.2 mm^3 and 4.14 ± 1.22 mm^3 | average tumor volume (M ± m) ([3]; Tamoxifen 30 mg/kg, Day 3): 17.12 ± 4.12 mm^3 | average tumor volume (M ± m) ([3]; Tamoxifen 30 mg/kg, Day 7): 44.1±8.8 mm^3 and 44.13 ± 8.81 mm^3 | TNBC_Kad growth inhibition, TGI ([3]; Tamoxifen 30 mg/kg, Day 10): 39.4% | average tumor volume (M ± m) ([3]; Tamoxifen 30 mg/kg, Day 10): 61.37 ± 12.03 mm^3 | TNBC_Kad growth inhibition, TGI ([3]; Tamoxifen 30 mg/kg, Day 14): 26.8% | average tumor volume (M ± m) ([3]; Tamoxifen 30 mg/kg, Day 14): 119.53 ± 18.54 mm^3 | TNBC_Kad growth inhibition, TGI ([3]; Tamoxifen 30 mg/kg, Day 17): 26.7% | average tumor volume (M ± m) ([3]; Tamoxifen 30 mg/kg, Day 17): 141.85 ± 35.07 mm^3 | TNBC_Kad growth inhibition, TGI ([3]; Tamoxifen 30 mg/kg, Day 21): 33.3% | average tumor volume (M ± m) ([3]; Tamoxifen 30 mg/kg, Day 21): 199.54 ± 43.55 mm^3 | Average volume of new tumors at the end of observation period (M) [4]: 0.20 cm^3 | average total volume of tumors, % changes from baseline ([4]; 28 days): 338% | average volume of tumors, % changes from baseline ([4]; 28 days): 338% | TGI (average total tumor volume) ([4]; Day 0): 44% | TGI (average tumor volume) ([4]; Day 0): 24% | average total volume of tumors in mice (M) ([4]; Day 0): 1.26 cm^3 | average volume of tumors (M) ([4]; Day 0): 0.29 cm^3 | TGI (average total tumor volume) ([4]; Day 7): 33% | TGI (average tumor volume) ([4]; Day 7): 8% | average total volume of tumors in mice (M) ([4]; Day 7): 2.01 cm^3 | average volume of tumors (M) ([4]; Day 7): 0.46 cm^3 | TGI (average total tumor volume) ([4]; Day 14): 32% | TGI (average tumor volume) ([4]; Day 14): 7% | average total volume of tumors in mice (M) ([4]; Day 14): 2.84 cm^3 | average volume of tumors (M) ([4]; Day 14): 0.65 cm^3 | TGI (average total tumor volume) ([4]; Day 21): 36% | TGI (average tumor volume) ([4]; Day 21): 12% | average total volume of tumors in mice (M) ([4]; Day 21): 3.23 cm^3 | average volume of tumors (M) ([4]; Day 21): 0.75 cm^3 | TGI (average total tumor volume) ([4]; Day 28): 5% | TGI (average tumor volume) ([4]; Day 28): −31% | average total volume of tumors in mice (M) ([4]; Day 28): 5.52 cm^3 | average volume of tumors (M) ([4]; Day 28): 1.27* cm^3 | Total number of new tumors ([4]; end of experiment): 32 | frequency of tumor stabilizations ([4]; end of observation): 3%
